This passage reports TGI and GI50 results from PubChem BioAssay (NCI).

Assay in all cases: growth of human tumour cells (NCI), 48 h
In assay [1] the test system is OVCAR-3 ovarian.
The subject of assay [2] is MALME-3M melanoma.
Assay [3] deals with OVCAR-8 ovarian.
Assay [4] has as its system A549 NSCLC.
For assay [5], the system named is TK-10 renal.
In assay [6] the test system is K-562 leukemia.
The test system of assay [7] is RXF 393 renal.
Assay [8] has as its system SK-MEL-28 melanoma.
Assay [9] concerns PC-3 prostate.

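How tested: cells in 96-well plates exposed to compound for 48 hours at five concentrations. GI50 is the concentration that inhibits growth by half. TGI marks complete inhibition of growth.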 Where only a bound is given, the exact number is not on record here.

For the compound `CCCCCCCCCCCCCCCC(=O)OCC1OC(n2cc(F)c(=O)[nH]c2=O)C(NC(=O)OCc2ccccc2)C(O)C1O` (configuration not stated), the TGI is 33.8 µM in assay [1]; 9.44 µM in [2]; 37.2 µM in [3]; 38.5 µM in assay [4]; 43 µM in [5]; 31.8 µM in [6].
For the compound `N#Cc1ccccc1Sc1ccccc1N`, the TGI in assay [2], in assay [7], in assay [3], in assay [8], in [4] and in assay [5] was greater than 100 µM in each case. The TGI in assay [6] is greater than 100 µM.
For `C/C(=N\NC(=S)N1CCC1)c1ccccn1`, the GI50 in assay [1] was 1.57 nM; in [2] it was 10.1 nM; in [3], 7.15 nM; in assay [4], 52.7 nM; in assay [5] it was 3.75 nM; in [6], 3.93 nM. Further, the TGI in assay [9] is greater than 100 µM; in assay [2], 7.65 µM; in [7], 4.39 µM; in assay [3] it was 12 µM; in assay [8] it was greater than 56 µM; in assay [4], 37.5 µM. The figures for the TGI in assay [5] and in assay [6] were greater than 79.3 µM and greater than 100 µM, respectively.
As to `O=C1C=CC2(O)OCC3C=C4O[C@@H]5OC6(CCCCC6)O[C@@H]5C4[C@@H]2[C@@H]13` (some centres not stated), the TGI in assay [1] was 52.2 µM; in assay [2], 62.1 µM; in [3] it was 77.2 µM; in assay [8], 44.7 µM; in assay [4], greater than 100 µM; in assay [5] it was 48.6 µM. In [6], this compound returned a TGI of 44.8 µM.
In the case of `CCOC(=O)C1=C(C)N(NC(N)=O)C2(N)N(NC(N)=O)C(C)=C(C(=O)OCC)C12C#N` (configuration not stated), the TGI in [1], in assay [2], in assay [3], in assay [8], in assay [4] and in assay [6] was greater than 100 µM throughout.
For the compound `COc1ccccc1/C=C(\NC(=O)c1ccccc1)c1nc2ccc(Cl)cc2[nH]1`, the TGI in assay [1] was 49.6 µM; in [2] it was greater than 100 µM; in assay [7], greater than 100 µM; in assay [3], 73 µM; in assay [8], greater than 100 µM; in [4], 70.2 µM. The TGI was 73.7 µM in [5] and greater than 100 µM in assay [6].
Regarding `Cc1ccc(-n2nc(C(OC3OC(CO)C(O)C(O)C3O)C(O)CO)c3nc4cc(C)c(C)cc4nc32)cc1` (configuration not stated), the TGI in [1], in assay [2], in [7], in assay [3], in assay [8] and in assay [5] was greater than 100 µM throughout. This compound also displayed a TGI in [6] greater than 100 µM.
As for `CC(C)N(C(=O)C12C3C4C1C1C4(C#N)C3C12C(=O)O)C(C)C` (configuration not stated), the TGI in assay [1], in [2], in [3], in assay [8], in assay [4] and in [5] was greater than 100 µM in each case. This compound also returned a TGI in assay [6] greater than 100 µM.
On to `CN1CCCc2nc3ccccc3n2C1`, for which the TGI in [1], in assay [2], in assay [7], in [3], in assay [8] and in assay [4] was greater than 100 µM throughout. Also, the TGI in assay [5] and in assay [6] was greater than 100 µM throughout.
Take `O=c1c2ccccc2nc(-c2cccc(Cl)c2)n1NC1OC(CO)C(O)C(O)C1O` (configuration not stated): the TGI in assay [1], in assay [2], in assay [3], in assay [8], in assay [4] and in [5] was greater than 100 µM throughout. Also, the TGI in assay [6] was greater than 100 µM.
For the compound `C[n+]1cn(CC(=O)c2ccccc2)c(C(N)=O)c1N`, the TGI in [1], in assay [2], in [3], in assay [8], in assay [4] and in [5] was greater than 100 µM throughout.
Consider `CCCCCCCCCC1CC(=O)OC23CCCC(=O)C12O3` (configuration not stated), for which the TGI in assay [1], in assay [2], in [7], in assay [3], in assay [8] and in assay [4] was greater than 100 µM each time. For the same compound, the TGI in assay [5] and in assay [6] was greater than 100 µM in each case.
With `C=C1C(=O)O[C@@H]2C[C@@]3(C)[C@H](O)CCC(=C)[C@@H]3C[C@H]12`, the TGI amounted to 21.4 µM in assay [1]; 12.6 µM in assay [2]; 23.3 µM in assay [3]; 20.2 µM in [8]; 70.5 µM in [4]; 25 µM in [5]. Also, in assay [6], the TGI was 10.2 µM.
For `Cc1nc2sccn2c1C(=O)NNC(N)=S`, the TGI in assay [1], in [2], in [7], in assay [3], in assay [8] and in assay [4] was greater than 100 µM in each case. The TGI in [5] and in assay [6] was greater than 100 µM in each case.
On to `OC1=CN=C(c2ccccc2)Oc2ccccc21`, for which the TGI in [1], in [2], in assay [7], in [3], in [8] and in assay [4] was greater than 100 µM in each case. In addition, the TGI in assay [5] and in assay [6] was greater than 100 µM each time.
On to `O=C(Nc1ccccc1C(=O)NC(=O)c1ccccc1NC(=O)c1ccccc1)c1ccccc1`, for which the TGI in assay [1] came out at 13.4 µM; in assay [2], 12.1 µM; in assay [7] it was 9.15 µM; in [3] it was 23 µM; in assay [8], 10.6 µM; in [4], 23.1 µM. In addition, the TGI was determined as 25.9 µM in assay [5] and 18.3 µM in [6].
